Test results as given in US8138183B2, “Morpholino pyrimidine derivatives used in diseases linked to mTOR kinase and/or PI3K” (AstraZeneca AB, priority 2007, dated 2012).
pIC50: −log10 of the molar value. Read-outs that look alike come from different tables or passages of the source.

Key:
[1] = system: phosphorylation of Serine 473 in Akt; assay: In Vitro phospho-Ser473 Akt Assay, Test (c); type: cell-based; details: MDA-MB-468 human breast adenocarcinoma cells, measured on two occasions, read-out: IC50 versus Serine 473 in Akt
Description: (c) In Vitro phospho-Ser473 Akt Assay
This assay determines the ability of test compounds to inhibit phosphorylation of Serine 473 in Akt as assessed using Acumen Explorer technology (Acumen Bioscience Limited), a plate reader that can be used to rapidly quantitate features of images generated by laser-scanning.
A MDA-MB-468 human breast adenocarcinoma cell line (LGC Promochem, Teddington, Middlesex, UK, Catalogue No. HTB-132) was routinely maintained at 37° C. with 5% CO2 up to a confluency of 70-90% in DMEM containing 10% heat-inactivated FCS and 1% L-glutamine.
For the assay, the cells were detached from the culture flask using ‘Accutase’ (Innovative Cell Technologies Inc., San Diego, Calif., USA; Catalogue No. AT104) using standard tissue culture methods and resuspended in media to give 1.7×10^5 cells per mL. […]
All subsequent aspiration and wash steps were carried out using a Tecan 96 well plate washer (aspiration speed 10 mm/sec). […] An aliquot of PBS (50 μl) was added to each well and the plates were sealed with black plate sealers and the fluorescence signal was detected and analysed.
Fluorescence dose response data obtained with each compound were analysed and the degree of inhibition of Serine 473 in Akt was expressed as an IC50 value.

[2] = target: recombinant mTOR (Homo sapiens, UniProt P42345); assay: In Vitro mTOR Kinase Assay, Test (a)(i) (AlphaScreen); type: biochemical; details: read-out: IC50 versus mTOR kinase
Description: (a)(i) In Vitro mTOR Kinase Assay
The assay used AlphaScreen technology (Gray et al., Analytical Biochemistry, 2003, 313: 234-245) to determine the ability of test compounds to inhibit phosphorylation by recombinant mTOR.
The HEK293 FLAG-tagged mTOR (1362-2549) stable cell line was routinely maintained at 37° C. with 5% CO2 up to a confluency of 70-90% in Dulbecco's modified Eagle's growth medium (DMEM; Invitrogen Limited, Paisley, UK Catalogue No. 41966-029) containing 10% heat-inactivated foetal calf serum (FCS; Sigma, Poole, Dorset, UK, Catalogue No. F0392), 1% L-glutamine (Gibco, Catalogue No. 25030-024) and 2 mg/ml Geneticin (G418 sulfate; Invitrogen Limited, UK Catalogue No. 10131-027). […]
Each reaction was stopped by the addition of 10 μl of a mixture of EDTA (50 mM), bovine serum albumin (BSA; 0.5 mg/mL) and Tris-HCl pH7.4 buffer (50 mM) containing p70 S6 Kinase (T389) 1A5 Monoclonal Antibody (Cell Signalling Technology, Catalogue No. 9206B) and AlphaScreen Streptavidin donor and Protein A acceptor beads (200 ng; Perkin Elmer, Catalogue No. 6760002B and 6760137R respectively) were added and the assay plates were left for about 20 hours at room temperature in the dark. The resultant signals arising from laser light excitation at 680 nm were read using a Packard Envision instrument. […]
mTOR enzyme inhibition for a given test compound was expressed as an IC50 value.

Sequence of recombinant mTOR (P42345 1362-2549): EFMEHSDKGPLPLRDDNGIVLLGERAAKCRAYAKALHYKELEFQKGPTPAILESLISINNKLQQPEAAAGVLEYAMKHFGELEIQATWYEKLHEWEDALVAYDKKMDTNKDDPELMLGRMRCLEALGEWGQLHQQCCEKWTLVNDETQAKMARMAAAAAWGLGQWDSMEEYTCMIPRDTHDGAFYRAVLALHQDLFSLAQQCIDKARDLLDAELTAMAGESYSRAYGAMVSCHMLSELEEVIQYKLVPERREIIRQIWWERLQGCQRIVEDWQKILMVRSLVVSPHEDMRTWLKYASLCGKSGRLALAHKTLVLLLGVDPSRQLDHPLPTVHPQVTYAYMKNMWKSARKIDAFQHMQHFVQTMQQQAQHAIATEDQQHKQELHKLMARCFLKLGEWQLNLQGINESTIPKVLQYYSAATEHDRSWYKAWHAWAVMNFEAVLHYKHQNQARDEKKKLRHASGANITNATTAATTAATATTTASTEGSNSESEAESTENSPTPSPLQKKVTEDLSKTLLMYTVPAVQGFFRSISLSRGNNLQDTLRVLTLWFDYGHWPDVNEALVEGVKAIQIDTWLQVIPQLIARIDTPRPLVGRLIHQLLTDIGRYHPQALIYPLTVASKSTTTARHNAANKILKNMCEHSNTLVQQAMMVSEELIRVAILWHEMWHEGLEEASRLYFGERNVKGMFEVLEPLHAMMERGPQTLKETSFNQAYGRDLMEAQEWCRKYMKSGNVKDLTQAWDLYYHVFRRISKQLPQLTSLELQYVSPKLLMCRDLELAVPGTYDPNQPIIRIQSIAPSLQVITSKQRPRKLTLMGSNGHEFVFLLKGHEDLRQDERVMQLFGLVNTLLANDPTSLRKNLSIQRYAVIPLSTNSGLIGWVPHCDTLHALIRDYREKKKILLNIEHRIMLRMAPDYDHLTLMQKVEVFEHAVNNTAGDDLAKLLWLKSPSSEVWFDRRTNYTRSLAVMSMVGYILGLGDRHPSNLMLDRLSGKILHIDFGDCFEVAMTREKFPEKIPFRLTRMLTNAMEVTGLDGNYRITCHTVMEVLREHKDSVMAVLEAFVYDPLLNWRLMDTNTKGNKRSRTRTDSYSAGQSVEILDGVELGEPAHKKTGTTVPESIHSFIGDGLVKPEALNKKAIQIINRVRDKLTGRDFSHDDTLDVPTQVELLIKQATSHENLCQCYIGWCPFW

pIC50 ([1]; Homo sapiens, MDA-MB-468, Test (c)): 5.71
pIC50 ([1]; Test (c)): 5.76
pIC50 [2]: 6.26
SMILES: C[C@H]1COCCN1c1cc(CS(C)(=O)=O)nc(-c2ccc(NC(=S)Nc3ccccc3)cc2)n1 [Example 1b, 1-[4-[4-[(3S)-3-methylmorpholin-4-yl]-6-(methylsulfonylmethyl)pyrimidin-2-yl]phenyl]-3-phenyl-thiourea]
